Molecules are shown by their SMILES. Calls of active or inactive are those of the source. No cut-off for these calls is given here.

This assay relates to C8166. The assay is described as follows: Compound was tested for antiviral activity against HIV C 8166 cells at a concentration of 5-50 uM; NS - No significant activity. It counts as functional, cell-based. The settings on record: Homo sapiens.
For the molecule `CCSc1nc(=O)n(C2C=CC(CO)O2)cc1C` (stereo not drawn), the result was inactive.
As to `COC(=O)C(C(=O)OC)=C1NC(=O)N(C2C=CC(CO)O2)C=C1C` (stereo not drawn), the result was inactive.
Take `COc1nc(=O)n(C2C=CC(CO)O2)cc1C` (stereo not drawn): the result was inactive.

Source of the values: ChEMBL document CHEMBL1150026, “Synthesis of 2,3-dideoxy-2,3-didehydronucleoside analogues as potential anti HIV agents” (Bioorg Med Chem Lett, 1992).
